Results reported in paper PMC6385242, “Identification and characterization of a factor Va-binding site on human prothrombin fragment 2” (Scientific Reports, 2019).

Experiments:
[1] = system: F2 (prothrombin fragment 2); assay: HSQC NMR of 15N-labeled F2 with thrombin or thrombin-derived peptide; assay type: binding, human; conditions: F2:peptide ratio as printed
Method: Uniform ^15N and ^13C/^15N isotopic labeling of F2 was achieved as described previously. Once labeled, F2 preparations prepared and pH adjusted, 25 μL of D2O was added to the protein solution to provide the NMR deuterium lock signal. For the titration experiments, small aliquots of the FVa-HC or FPRck-thrombin, both in 2 mM HEPES, 50 mM sodium phosphate buffer, pH 7, were added to samples of ^15N-labeled F2 up to a molar ratio of ~10:1. […]
All NMR experiments were carried out at 35° C on a Bruker Avance500 or an Avance800 spectrometer equipped with triple-resonance (^1H, ^13C, and ^15N) and three-axis gradient probes. Two-dimensional and three-dimensional NMR data collected for ^15N- and ^13C/^15N-labeled F2 included ^1H-^15N HSQC, HNCO, HN(CA)CO, HNCA, HN(CO)CA, CBCA(CO)NH and HNCACB[57]–[59]. Water suppression was achieved using the WATERGATE method with a 3:9:19 selective pulse incorporated in all the three-dimensional pulse sequences. […]
synthesized a peptide corresponding to residues 91- 101 of human thrombin with two cysteine residues added to form a disulfide bond between the N- and C-terminal en ds of the p eptide (s ee Experimental Procedures). […] Potential binding of the thrombin- derived peptide with F2 was monitored by the 1H-15N HSQC spectra of 15N-labeled F2 with a F2:peptide ratio of 3:1. […]

[2] = system: FXa/PCPS, prothrombin activation; assay: Inhibition of FXa-mediated prothrombin activation by F2-derived peptides in the absence of FVa; assay type: biochemical, human; conditions: 300 nM prothrombin, 5 mM CaCl2, 5 μM DAPA, 50 μM PCPS, 20 nM FXa
Method: Figure 3 Inhibition of FXa-mediated prothrombin activation by synthetic peptides derived from F2. […] Reactions were started by addition of 20 nM FXa. […] Reactions were initiated by addition of 0.1 nM FXa. Non-linear regression analysis was carried out to determine the IC50 and the apparent Ki was calculated using the Cheng-Prusoff equation.
(§1) Reactions were started with addition of FXa (0.1 nM), and monitored in SpectraMax Gemini fluorescence plate reader (Molecular Devices, Sunnyvale, California) at excitation and emission wavelengths of 280 nm and 545 nm, respectively, with a 530 nm emission cut off filter in the emission beam at 25 °C. In the absence of FVa, reactions were carried out as described above; however, the reactions were started with the addition of 20 nM FXa. The Ki values were estimated using the Cheng-Prusoff equation (IC50 = [1 + ([S]/KM)] Ki) based on the IC50 values obtained by nonlinear regression of a rectangular hyperbola, whereby [S] is the prothrombin concentration and KM is the Michaelis constant of prothrombinase for prothrombin determined in a separate experiment as described previously.

[3] = target: T1, prothrombinase (FXa/FVa/PCPS), prothrombin activation (Homo sapiens, UniProt P00742+P12259); assay: Relative rate of prothrombin activation with F2-derived peptides (screen, Fig. S1); assay type: biochemical; conditions: peptide 0, 50, 200, 500 μM; 300 nM prothrombin, 5 mM CaCl2, 3 μM DAPA, 50 μM PCPS, 5 nM FVa, 0.05 nM FXa
T1 construct: purchased Haematologic Technologies, Inc (FXa, FVa); Enzyme Research Laboratories (prothrombin)
T1 sequence (P12259 29-737 limits assumed): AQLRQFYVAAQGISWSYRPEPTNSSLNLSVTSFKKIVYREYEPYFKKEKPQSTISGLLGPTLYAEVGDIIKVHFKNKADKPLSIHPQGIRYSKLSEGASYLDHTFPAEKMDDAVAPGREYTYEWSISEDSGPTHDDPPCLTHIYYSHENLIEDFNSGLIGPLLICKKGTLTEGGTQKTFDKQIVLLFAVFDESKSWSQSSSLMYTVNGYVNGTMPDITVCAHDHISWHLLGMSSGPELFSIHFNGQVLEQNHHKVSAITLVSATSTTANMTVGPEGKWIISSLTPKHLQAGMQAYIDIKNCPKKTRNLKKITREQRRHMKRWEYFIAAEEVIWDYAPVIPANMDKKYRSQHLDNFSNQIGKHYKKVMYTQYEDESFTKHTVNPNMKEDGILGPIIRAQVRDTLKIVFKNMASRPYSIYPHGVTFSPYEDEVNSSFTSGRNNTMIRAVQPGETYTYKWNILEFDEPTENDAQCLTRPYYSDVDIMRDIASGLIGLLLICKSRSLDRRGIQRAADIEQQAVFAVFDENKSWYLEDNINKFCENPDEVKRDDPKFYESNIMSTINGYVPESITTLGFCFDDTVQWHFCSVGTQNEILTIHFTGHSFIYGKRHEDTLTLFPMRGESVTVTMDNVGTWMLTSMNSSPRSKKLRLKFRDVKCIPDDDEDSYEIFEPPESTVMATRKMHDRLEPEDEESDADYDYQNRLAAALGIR
T1 sequence (P12259 1574-2224 limits assumed): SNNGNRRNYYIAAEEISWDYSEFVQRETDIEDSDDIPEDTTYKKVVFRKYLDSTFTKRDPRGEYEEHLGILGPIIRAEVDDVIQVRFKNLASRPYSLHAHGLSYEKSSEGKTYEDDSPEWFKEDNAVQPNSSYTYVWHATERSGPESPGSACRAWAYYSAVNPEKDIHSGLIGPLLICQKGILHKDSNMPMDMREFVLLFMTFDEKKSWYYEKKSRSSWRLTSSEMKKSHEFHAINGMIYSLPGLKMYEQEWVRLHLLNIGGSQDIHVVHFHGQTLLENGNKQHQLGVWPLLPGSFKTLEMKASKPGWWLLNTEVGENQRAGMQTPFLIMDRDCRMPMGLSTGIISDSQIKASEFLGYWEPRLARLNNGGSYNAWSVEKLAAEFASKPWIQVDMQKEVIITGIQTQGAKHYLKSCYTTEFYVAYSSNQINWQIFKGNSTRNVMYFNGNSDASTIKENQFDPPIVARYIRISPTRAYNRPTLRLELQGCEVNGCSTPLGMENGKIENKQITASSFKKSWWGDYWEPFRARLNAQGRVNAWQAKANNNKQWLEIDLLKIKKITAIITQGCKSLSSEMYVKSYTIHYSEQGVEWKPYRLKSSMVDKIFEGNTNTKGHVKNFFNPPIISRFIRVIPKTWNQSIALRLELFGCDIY
T1 sequence (P00742 41-179 partner limits assumed): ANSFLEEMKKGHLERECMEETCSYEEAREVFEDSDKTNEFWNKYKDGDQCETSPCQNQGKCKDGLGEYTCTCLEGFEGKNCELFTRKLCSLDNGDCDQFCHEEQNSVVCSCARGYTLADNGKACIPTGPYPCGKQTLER
T1 sequence (P00742 235-488 partner limits assumed): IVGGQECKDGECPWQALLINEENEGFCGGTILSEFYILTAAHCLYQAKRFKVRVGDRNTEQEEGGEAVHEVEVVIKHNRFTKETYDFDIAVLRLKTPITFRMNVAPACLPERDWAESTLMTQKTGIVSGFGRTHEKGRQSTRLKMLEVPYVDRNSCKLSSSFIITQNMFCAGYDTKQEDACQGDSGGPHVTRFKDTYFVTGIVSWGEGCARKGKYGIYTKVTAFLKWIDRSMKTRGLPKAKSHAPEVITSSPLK
Method: as §1
Figure S1. Relative rate of prothrombin activation in the presence of each of the peptides at various concentrations. Initial rates of prothrombin activation were determined from reactions containing 300 nM prothrombin. 5 mM CaCl2, 3 μM DAPA, 50 μM PCPS, 5 nM FVa and 0.05 nM FXa. Relative rates of prothrombin activation are shown for each concentration of peptide at […]
(1 picture or pasted object on this page, not shown here)

prothrombinase = conditions: cited from earlier work
Text: It has been widely accepted that FVa alone increases the rate of thrombin generation by 3 orders of magnitude while the membrane surface alone increases the catalytic efficiency of thrombin generation by 2 orders of magnitude, which together increases its catalytic efficiency by 5 orders of magnitude. These individual contributions of the prothrombinase components toward overall thrombin generation, however, were not observed in our experiments (Table 1). […] The 5-orders of magnitude ...

[4] = pH 7.4
[5] = system: F2 (prothrombin fragment 2); conditions: thrombin/F2 molar ratios 1:30 to 1:10; clusters Asp68–Lys81 and Ala96–Asp108; ref (9) Koutychenko, A. (2002); cited from earlier work
Text: page 3: plasma-derived material, indicating purity and functional integrity of the recombinant F2 protein (9). […] Not abl y, there were two upfield -shifted meth yl proton resonances, which are common for a conserved Leu residue in all kringle domains (10 –12) .

Substance: CH91PRYNWRENLDR101C (disulfide) [thrombin-derived peptide, residues 91-101 in the B-chain of human thrombin with two Cys residues added, cyclic]
- chemical shift changes in 15N-F2 versus intact thrombin [1]: smaller chemical shift changes

Substance: DGLDEDSDRAIEGR [F2P8, F2-derived peptide, prothrombin residues 258-271]
- inhibition of prothrombin activation in the absence of FVa [2]: inhibited prothrombin activation
- dose-dependent inhibition of prothrombin activation [3]: inhibited prothrombin activation in a dose-dependent manner

Substance: DLNYS*EEAVEEETG [F2P7, F2-derived peptide, prothrombin residues 244-257, cysteine changed to serine]
- dose-dependent inhibition of prothrombin activation [3]: did not

Substance: EGSSVNLSPPLE [F2P1, F2-derived peptide, prothrombin residues 157-168]
- inhibition of prothrombin activation in the absence of FVa [2]: inhibited prothrombin activation
- dose-dependent inhibition of prothrombin activation [3]: inhibited prothrombin activation in a dose-dependent manner

Substance: FVa: factor Va, protein cofactor of prothrombinase
- increase in rate of thrombin generation by FVa alone (prothrombinase): 3 orders of magnitude

Substance: LAWASAQAKALSKH [F2P4]
- solubility [4]: not soluble

Substance: QDFNSAVQLVEN [F2P5]
- solubility [4]: not soluble

Substance: YVAGKPGDFGY [F2P6, F2-derived peptide, prothrombin residues 232-242]
- dose-dependent inhibition of prothrombin activation [3]: did not

Substance: thrombin
- perturbed HSQC peaks of 15N-F2 [5]: two major clusters
